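1) Cells in 96-well plates. 2) Compound, 48 h, 5 concentrations. 3) Linear interpolation between surrounding doses. 4) Unreached endpoint = highest concentration. The concentration for 50% growth inhibition is given as GI50. TGI denotes the concentration required for complete inhibition of growth.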
How the values were obtained:
Test in all cases: NCI-60 cell line screen, 48 h
[1] = test system: HOP-62 NSCLC
[2] = test system: HCT-116 colon
[3] = test system: UACC-62 melanoma
[4] = test system: HS 578T breast
[5] = test system: A549 NSCLC
[6] = test system: DU-145 prostate
[7] = test system: TK-10 renal
[8] = test system: EKVX NSCLC
[9] = test system: T-47D breast
[10] = test system: SNB-75 CNS

SMILES	GI50 [1]	TGI [1]	GI50 [2]	TGI [2]	GI50 [3]	TGI [3]	GI50 [4]	TGI [4]	GI50 [5]	TGI [5]	GI50 [6]	TGI [6]	GI50 [7]	TGI [7]	GI50 [8]	TGI [8]	GI50 [9]	TGI [9]	TGI [10]	GI50 [10]
COc1cc(Nc2nc3cc(N)cc(N)c3nc2-c2ccccc2)cc(OC)c1OC	16.3 µM	34.3 µM	15.4 µM	34.1 µM	13.6 µM	31.8 µM	15 µM	78.1 µM	29.8 µM	> 100 µM	21.9 µM	74 µM	23.9 µM	66.5 µM	17.6 µM	47.4 µM	6.07 µM	27.3 µM	–	–
N#Cc1c(-c2ccc(Cl)c(Cl)c2)c(-c2ccc(Cl)c(Cl)c2)nn(CC(=O)O)c1=O	–	> 100 µM	–	> 100 µM	–	> 100 µM	–	–	–	> 100 µM	–	–	–	> 100 µM	–	> 100 µM	–	–	> 100 µM	–
O=C1C2Nc3ccccc3SC2C(=O)N1c1ccc(Br)cc1 (configuration not stated)	–	55.1 µM	–	–	–	> 100 µM	–	–	–	> 100 µM	–	–	–	> 100 µM	–	> 100 µM	–	–	60.7 µM	–
C/C(=C1/N=C(c2cc([N+](=O)[O-])ccc2Cl)N(c2cccc(C)c2)C1=O)c1cc2ccccc2oc1=O	–	> 100 µM	–	> 100 µM	–	> 100 µM	–	–	–	> 100 µM	–	–	–	> 100 µM	–	> 100 µM	–	–	> 100 µM	–
COc1ccc(C/C(=N/O)C(=O)NCCc2cc(Br)c(OCCCN(C)C)c(Br)c2)cc1Br	–	30 µM	–	28 µM	–	–	–	–	–	38.4 µM	–	–	–	59.8 µM	–	43 µM	–	–	55 µM	–
Cc1ccc(S(=O)(=O)OCCn2cnc3nc(NC(=O)c4ccccc4)[nH]c(=O)c32)cc1	–	> 100 µM	–	> 100 µM	–	> 100 µM	–	–	–	> 100 µM	–	–	–	> 100 µM	–	> 100 µM	–	–	> 100 µM	–
COC(=O)CC(NC(=O)OCc1ccccc1)C(C(C)=O)C(=O)OCc1ccccc1 (configuration not stated)	–	–	–	> 31.6 µM	–	> 31.6 µM	–	–	–	> 31.6 µM	–	–	–	> 31.6 µM	–	> 31.6 µM	–	–	30.8 µM	–
CCCCCN(CCCCC)C(=O)[C@@H](CCC(=O)O)NC(=O)c1cc2ccccc2[nH]1	–	87.7 µM	–	34.2 µM	–	47.5 µM	–	–	–	> 100 µM	–	–	–	> 100 µM	–	> 100 µM	–	–	61.8 µM	–
CC1=CC(=O)C2=C(C)CCC3C(C)C(=O)OC3C12 (configuration not stated)	–	> 100 µM	–	> 100 µM	–	> 100 µM	–	> 100 µM	–	> 100 µM	–	> 100 µM	–	> 100 µM	–	> 100 µM	–	> 100 µM	–	–
O=C(Nc1ccc2[nH]nc(-c3ccncc3)c2c1)[C@@H]1CCN(CC(=O)N2CCN(c3ccc(-c4ncccn4)cc3)CC2)C1	0.281 µM	> 100 µM	0.0783 µM	> 44.6 µM	–	–	> 100 µM	> 100 µM	5.09 µM	> 100 µM	7.58 µM	> 100 µM	–	–	–	–	2.74 µM	> 100 µM	> 90.8 µM	18.2 µM
COc1ccc(C(c2cc(OC)c(OC)c(OC)c2)n2ccnc2)cc1O (configuration not stated)	0.516 µM	> 100 µM	0.249 µM	> 100 µM	0.668 µM	> 100 µM	0.414 µM	> 100 µM	0.838 µM	> 100 µM	0.407 µM	> 100 µM	–	–	0.72 µM	> 100 µM	–	–	–	–
COC[C@@H](N=C1NC(=O)/C(=C/c2ccc3ncccc3c2)S1)c1ccccc1	11.7 µM	> 25 µM	8.73 µM	> 25 µM	11.6 µM	> 25 µM	7.43 µM	> 23.2 µM	6.72 µM	> 25 µM	12 µM	> 25 µM	–	–	–	–	8.43 µM	> 25 µM	> 22 µM	4.83 µM
COC(=O)C1CCc2c1c(=O)n1c([nH]c3ccccc31)c2C#N (configuration not stated)	–	> 100 µM	–	> 100 µM	–	> 100 µM	–	–	–	> 100 µM	–	–	–	> 100 µM	–	> 100 µM	–	–	> 100 µM	–
Cn1cc(C(=O)c2ccccc2)c2ccccc2c1=O	–	71.8 µM	–	> 100 µM	–	> 100 µM	–	–	–	> 100 µM	–	–	–	> 100 µM	–	> 100 µM	–	–	> 100 µM	–
CN(C)C=Nc1ccn(CCO)c(=O)n1	–	> 100 µM	–	> 100 µM	–	> 100 µM	–	–	–	> 100 µM	–	–	–	> 100 µM	–	> 100 µM	–	–	> 100 µM	–
O=C1NC(Cc2ccc(O)cc2)C(=O)N2CCCC12 (configuration not stated)	–	> 100 µM	–	> 100 µM	–	> 100 µM	–	–	–	> 100 µM	–	–	–	> 100 µM	–	> 100 µM	–	–	> 100 µM	–
O=C(NCCCCCCCCCCCCNC(=O)c1cccc2ccccc12)c1cccc2ccccc12	–	30.4 µM	–	> 100 µM	–	> 100 µM	–	–	–	> 100 µM	–	–	–	> 87.1 µM	–	> 100 µM	–	–	> 54.6 µM	–
CC(=O)OCC1OC(n2cc(F)c(=O)[nH]c2=O)C(NC(=O)N(CCCl)N=O)C(OC(C)=O)C1OC(C)=O (configuration not stated)	–	> 100 µM	–	> 100 µM	–	> 100 µM	–	–	–	> 100 µM	–	–	–	> 100 µM	–	–	–	–	78.3 µM	–
CCC(C)CCOC(=O)c1ccc(N=Cc2ccc(C=Nc3ccc(C(=O)OCCC(C)CC)cc3)cc2)cc1 (configuration not stated)	–	> 100 µM	–	> 100 µM	–	> 100 µM	–	–	–	> 100 µM	–	–	–	–	–	> 100 µM	–	–	> 100 µM	–
CC1=Nc2ccccc2S/C1=C(/C)NNS(=O)(=O)c1ccc(C)cc1	–	> 100 µM	–	> 100 µM	–	> 100 µM	–	–	–	> 100 µM	–	–	–	> 100 µM	–	> 100 µM	–	–	> 100 µM	–
Cn1c2c(c3ccccc31)CCN(CCCCN1CCCCC1)C2=O	–	> 100 µM	–	> 100 µM	–	66 µM	–	–	–	> 100 µM	–	–	–	> 100 µM	–	> 100 µM	–	–	–	–
COC(=O)CCC(NC(=S)N/N=C(\C)c1cnc2ccccc2n1)C(=O)OC (configuration not stated)	–	> 100 µM	–	38.6 µM	–	38.5 µM	–	–	–	> 100 µM	–	–	–	> 100 µM	–	> 100 µM	–	–	> 100 µM	–
CN1c2ccccc2N(C(=O)c2ccc([N+](=O)[O-])cc2)C(CC(=O)O)c2cccn21 (configuration not stated)	–	> 100 µM	–	–	–	> 100 µM	–	–	–	> 100 µM	–	–	–	> 100 µM	–	> 100 µM	–	–	> 100 µM	–
C[C@@H](NC1CCCC[C@H]1O)c1ccccc1 (some centres not stated)	–	> 100 µM	–	> 100 µM	–	> 100 µM	–	–	–	> 100 µM	–	–	–	> 100 µM	–	> 100 µM	–	–	> 100 µM	–
Nc1ncnc2c1ncn2[C@]1(CO)C=C(CO)C(O)C1O (some centres not stated)	–	> 100 µM	–	> 100 µM	–	–	–	–	–	> 100 µM	–	–	–	> 100 µM	–	–	–	–	> 100 µM	–
